This note sets out measurements from US8232401B2 (Japan Tobacco Inc., priority 2002, dated 2012).

The target of the assay is T1, HIV integrase (Human immunodeficiency virus type 1 group M subtype B, UniProt P12497, F1332H).
T1 construct: HIV integrase full length gene; made in house; host or cells: Escherichia coli BL21(DE3)
The assay can be described thus: Determination of enzyme (HIV integrase) inhibitory activity (strand transfer, microtiter plate, absorbance at 450 nm). Format: biochemical, HIV (Human Immunodeficiency Virus (type 1)). Conditions: recombinant HIV integrase (F185H) expressed in E. coli; donor DNA on streptavidin plate, digoxigenin target DNA; 37° C. How it is done:
The following explains evaluation methods of the HIV integrase inhibitory activity of the compound of the present invention.
(i) Construction of Recombinant Integrase Gene Expression System
(ii) Production and Purification of Integrase Protein
Escherichia coli recombinant BL21(DE3) transformed with plasmid pET21a-IN-F185H obtained in (i) was shake cultured at 30° C. in a liquid medium containing ampicillin. When the culture reached the logarithmic growth phase, isopropyl-β-D-thiogalactopyranoside was added to promote expression of integrase gene. The culture was continued for 3 hrs to promote accumulation of the integrase protein. The recombinant E. coli was collected in pellets by centrifugal separation and preserved at −80° C.
The E. coli was suspended in Lysis buffer (20 mM HEPES (pH 7.5), 5 mM DTT, 10 mM CHAPS, 10% glycerol) containing 1M sodium chloride and subjected to repeat pressurization and depressurization for rupture, and centrifugal separation at 4° C., 40,000×g, 60 min to recover a water-soluble fraction (supernatant). This was diluted 10-fold with Lysis buffer free of sodium chloride, mixed with SP-Sepharose (Pharmacia Corporation) and stirred at 4° C. for 60 min to allow adsorption of integrase protein to the resin. The resin was washed with Lysis buffer containing 100 mM sodium chloride and the integrase protein was eluted with Lysis buffer containing 1M sodium chloride.
The eluted integrase protein solution was applied to a Superdex 75 (Pharmacia Corporation) column for gel filtration. The protein was eluted with Lysis buffer containing 1M sodium chloride.
The obtained fractions of the integrate protein were collected and preserved at −80° C.
(iii) Preparation of DNA Solution
The following DNA synthesized by Greiner was dissolved in TE buffer (10 mM Tris-hydrochloric acid (pH 8.0), 1 mM EDTA) and mixed with donor DNA, target DNA, each complementary strand (+ and − strands) to 1 μM. The mixture was heated at 95° C. for 5 min, 80° C. for 10 min, 70° C. for 10 min, 60° C. for 10 min, 50° C. for 10 min and 40° C. for 10 min and preserved at 25° C. to give a double stranded DNA, which was used for the test. Donor DNA (− strand having biotin attached to the 5′ terminal)
(iv) Determination of Enzyme (HIV Integrase) Inhibitory activity
The donor DNA was diluted with TE buffer to 10 nM, of which 50 μl was added to each well of streptavidin-coated microtiter plate (Roche) and allowed to adsorb at 37° C. for 60 min. The DNA was washed with phosphate buffer (Dulbecco PBS, Sanko Junyaku Co., Ltd.) containing 0.1% Tween 20 and phosphate buffer. Then, a reaction mixture (70 μl) having the following composition, a test substance (10 μl) diluted with the reaction mixture and […] integrase protein (10 μl) were added to each well and reacted at 37° C. for 60 min.
Then, 50 nM target DNA (1.0 μl) was added, reacted at 37° C. for 10 min and washed with phosphate buffer containing 0.1% Tween 20 to stop the reaction.
Then, 100 mU/ml peroxidase labeled anti-digoxigenin antibody solution (Roche, 100 μl) was added, and the mixture was reacted at 37° C. for 60 min, followed by washing with phosphate buffer containing 0.1% Tween 20.
A peroxidase color solution (Bio Rad, 100 μl) was added and allowed to react at room temperature for 4 min. The color reaction was stopped by adding 1N sulfuric acid (100 μl). The absorbance at 450 nm was measured.
The HIV integrase inhibitory activity (IC50) of the compound of the present invention was calculated from the inhibition rate according to the following formula. […] Evaluation of Antiviral Activity
As to `CSCCn1cc(C(=O)O)c(=O)c2cc(Cc3cccc(Cl)c3Cl)ccc21` [Example 1-32, 6-(2,3-Dichlorobenzyl)-1-(2-methylsulfanylethyl)-4-oxo-1,4-dihydroquinoline-3-carboxylic acid], the IC50 was found to be 68 nM.

Turning to `O=C(O)c1cn(CCO)c2ccc(Cc3c(F)cccc3Cl)cc2c1=O` [Example 1-33, 6-(2-Chloro-6-fluorobenzyl)-1-(2-hydroxyethyl)-4-oxo-1,4-dihydroquinoline-3-carboxylic acid], the IC50 is 140 nM.

For `O=C(O)c1cn(CCCCCO)c2ccc(Cc3cccc(Cl)c3Cl)cc2c1=O` [Example 1-34, 6-(2,3-Dichlorobenzyl)-1-(5-hydroxypentyl)-4-oxo-1,4-dihydroquinoline-3-carboxylic acid], the IC50 came out at 350 nM.

Consider `Cn1cc(C(=O)O)c(=O)c2cc(Cc3cccc(Cl)c3Cl)ccc21` [Example 1-36, 6-(2,3-Dichlorobenzyl)-1-methyl-4-oxo-1,4-dihydroquinoline-3-carboxylic acid], for which the half-inhibitory concentration (IC50) was found to be 180 nM.

With `CCn1cc(C(=O)O)c(=O)c2cc(Cc3cccc(Cl)c3Cl)ccc21` [Example 1-37, 6-(2,3-Dichlorobenzyl)-1-ethyl-4-oxo-1,4-dihydroquinoline-3-carboxylic acid], the half-maximal inhibitory concentration (IC50) came to 110 nM.

For the compound `CCCn1cc(C(=O)O)c(=O)c2cc(Cc3cccc(Cl)c3Cl)ccc21` [Example 1-38, 6-(2,3-Dichlorobenzyl)-4-oxo-1-propyl-1,4-dihydroquinoline-3-carboxylic acid], the IC50 was 170 nM.

Regarding `CCCCn1cc(C(=O)O)c(=O)c2cc(Cc3cccc(Cl)c3Cl)ccc21` [Example 1-39, 1-Butyl-6-(2,3-Dichlorobenzyl)-4-oxo-1,4-dihydroquinoline-3-carboxylic acid], the IC50 was determined as 180 nM.

Regarding `O=C(O)c1cn(CC2CCCC2)c2ccc(Cc3cccc(Cl)c3Cl)cc2c1=O` [Example 1-40, 1-Cyclopentylmethyl-6-(2,3-dichlorobenzyl)-4-oxo-1,4-dihydroquinoline-3-carboxylic acid], the 50% inhibitory concentration (IC50) came to 110 nM.

For `CS(=O)(=O)CCn1cc(C(=O)O)c(=O)c2cc(Cc3cccc(Cl)c3Cl)ccc21` [Example 1-41, 6-(2,3-Dichlorobenzyl)-1-(2-methanesulfonylethyl)-4-oxo-1,4-dihydroquinoline-3-carboxylic acid], the IC50 is 210 nM.

`O=C(O)c1cn(CC2CCCCC2)c2ccc(Cc3cccc(Cl)c3Cl)cc2c1=O` [Example 1-42, 1-Cyclohexylmethyl-6-(2,3-dichlorobenzyl)-4-oxo-1,4-dihydroquinoline-3-carboxylic acid]: the half-inhibitory concentration (IC50) was 130 nM.

Take `O=C(O)c1cn(CC(O)c2ccccc2)c2ccc(Cc3cccc(Cl)c3Cl)cc2c1=O` (stereo not drawn) [Example 1-43, 6-(2,3-Dichlorobenzyl)-1-(2-hydroxy-2-phenylethyl)-4-oxo-1,4-dihydroquinoline-3-carboxylic acid]: the half-inhibitory concentration (IC50) was determined as 24 nM.

On to `O=C(O)c1cn(CCF)c2ccc(Cc3cccc(Cl)c3Cl)cc2c1=O` [Example 1-44, 6-(2,3-Dichlorobenzyl)-1-(2-fluoroethyl)-4-oxo-1,4-dihydroquinoline-3-carboxylic acid], for which the IC50 stood at 51 nM.

In the case of `O=C(O)c1cn(CCc2ccccn2)c2ccc(Cc3cccc(Cl)c3Cl)cc2c1=O` [Example 1-45, 6-(2,3-Dichlorobenzyl)-4-oxo-1-(2-pyridin-2-ylethyl)-1,4-dihydroquinoline-3-carboxylic acid], the IC50 was 210 nM.

Regarding `NCCn1cc(C(=O)O)c(=O)c2cc(Cc3cccc(Cl)c3Cl)ccc21` [Example 1-46, 1-(2-Aminoethyl)-6-(2,3-dichlorobenzyl)-4-oxo-1,4-dihydroquinoline-3-carboxylic acid], the half-inhibitory concentration (IC50) came to 420 nM.

Consider `CC(C)(O)Cn1cc(C(=O)O)c(=O)c2cc(Cc3cccc(Cl)c3Cl)ccc21` [Example 1-47, 6-(2,3-Dichlorobenzyl)-1-(2-hydroxy-2-methylpropyl)-4-oxo-1,4-dihydroquinoline-3-carboxylic acid], for which the IC50 is 98 nM.
